Test: gradient 5% acetonitrile 3 min, to 50% in 2 min, to 85% in 15 min, held 3 min, 100 µL/min
Conditions: column: Zorbax Extend-C18 2.1 x 50 mm; eluents: water / acetonitrile, 0.1% formic acid
Procedure, shortened: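 In both positive and negative ionization mode, a quadrupole time-of-flight mass spectrometer coupled to HPLC analyzed pure standards run in mixtures of ~100 molecules. The Zorbax Extend-C18 column (2.1 × 50 mm, 1.8 μm) was operated at 100 μL/min with water and acetonitrile, each containing 0.1% formic acid. The dead volume was 40 μL and the dwell volume 900 μL. Retention time came from adduct peaks that were computationally picked and individually inspected by hand.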

Row | RP-LC retention time [s] | SMILES
1 | 683 | O=C(Nc1ccccc1F)N1CCCC1c1nncn1-c1ccccc1 (centres undefined)
2 | 868 | Cn1c(=O)n(C)c2cc(Oc3ccccc3)c(NS(=O)(=O)c3ccc(F)cc3)cc21
3 | 749 | N#Cc1cccc(-c2cn3c(n2)N(C(=O)c2cccc(F)c2)CCC3)c1
4 | 904 | O=c1ccn(-c2ccc(F)c(F)c2)nc1-c1nc(-c2ccc(F)cc2)no1
5 | 566 | Cc1ccccc1CN1CCN(c2ccccn2)CC1
6 | 1120 | Cc1ccc(-c2ccc3nn(Cc4nc(-c5ccc(OC(F)(F)F)cc5)no4)c(=O)n3n2)cc1
7 | 547 | COc1cccc(CNC2CCN(c3ccc(C(=O)NC4CC4)cn3)C2)c1 (centres undefined)
8 | 595 | COCCc1noc(C2CN(C(=O)c3ocnc3C)C2)n1
9 | 889 | O=C(O)c1cc(-c2ccccn2)nc2ccc(Br)cc12
10 | 825 | Clc1ccccc1C1Cn2cnc(-c3nc(-c4cccnc4)no3)c2CO1 (centres undefined)
11 | 1060 | Cc1c(-c2noc(-c3ccc(F)cc3)n2)nnn1-c1ccc(F)cc1
12 | 933 | COc1cc(OC)cc(-n2nnc(-c3nsc(Nc4ccc(OC)c(OC)c4)n3)c2C)c1
13 | 638 | Cc1ccc(CN2CCC(CNC(=O)c3ccc4c(c3)NC(=O)C3CCCCN43)CC2)cc1 (centres undefined)
14 | 796 | O=C(Cn1nc2c3cc(-c4ccc(F)cc4)nn3ccn2c1=O)NCc1ccco1
15 | 723 | COc1ccc(NC(=O)C2CCN(c3nnc4ccc(Cl)cn34)CC2)c(OC)c1
16 | 780 | COc1cccc(-c2cn3ccn(-c4ccccc4OC)c(=O)c3n2)c1
17 | 606 | C#CCOCC(O)CN1CCN(C(c2ccccc2)c2ccccc2)CC1 (centres undefined)
18 | 744 | CC(C)NC(=O)CN1C(=O)COc2ccc(C(=O)N3CCc4ccccc4C3)cc21
19 | 614 | O=C(Nc1ccc(F)c(Cl)c1)N1CCc2nc[nH]c2C1
20 | 1040 | O=C(COc1ccccc1[N+](=O)[O-])Nc1nc(-c2ccccc2)cs1
21 | 705 | CCn1ccc(NC(=O)NC(C)(C)C)n1
22 | 541 | CCCN1CCN(CCCNC(=O)C2CCN(Cc3cn(C)c4ccc(Cl)cc34)CC2)CC1

Row | RP-LC retention time [s] | SMILES
23 | 976 | Cc1cc(OCC(=O)Nc2ccc(C#N)cc2)nc(-c2ccc(F)cc2)n1
24 | 595 | Cc1ccc(CNC(=O)Cn2c(N)nc(C)cc2=O)cc1
25 | 919 | COc1ccc(N2CCN(CCNc3cc(C(=O)O)c4ccccc4n3)CC2)cc1
26 | 879 | CCn1cc(-c2nc(CC(=O)Nc3ccc(C#N)cc3)cs2)c2cccnc21
27 | 678 | COc1ccc(NC(=O)NCC(c2cccnc2)c2cn(C)c3ccccc23)cc1 (centres undefined)
28 | 849 | Cc1cccc(NC(=O)C2CCCN(c3ncnc4onc(-c5ccc(F)cc5)c34)C2)n1 (centres undefined)
29 | 784 | COc1ccc(Cl)cc1C(=O)NC1CCN(c2cc(-c3ccccc3)[nH]n2)C1 (centres undefined)
30 | 552 | O=C(Nc1cccnc1)c1ccc(S(=O)(=O)NC2CC2)cc1
31 | 512 | CNC(=O)NCCc1c[nH]c2ncccc12
32 | 902 | COCc1noc(C2CCCCN2C(=O)CCc2ccccc2OC)n1 (centres undefined)
33 | 837 | NC(CO)(CO)CCc1ccc(Sc2cccc(OCc3ccccc3)c2)cc1Cl
34 | 1110 | COc1cccc(-c2noc(Cn3c(=O)n(C(C)C)c(=O)c4ccccc43)n2)c1
35 | 939 | Cc1c(-c2nn3c(Cc4ccccc4)nnc3s2)nnn1-c1ccccc1
36 | 644 | Cc1ccccc1NC(=O)Cn1cnc2nc(N3CCCC(C(=O)NC4CC4)C3)sc2c1=O (centres undefined)
37 | 663 | O=C(NCc1ccc(Cl)cc1)C1CCN(c2cc(N3CCOCC3)ncn2)CC1
38 | 629 | COc1ccccc1CNC(=O)Cn1nc2cc(-c3ccccn3)nc(C)n2c1=O
39 | 792 | COc1cccc(NC(=O)Cn2nc(C(=O)N3CCCC3)c3ccccc32)c1
40 | 681 | Cc1ccc(-c2nc3ccccn3c2NC(=O)NCc2ccc(F)cc2)cc1
41 | 1330 | Fc1ccc(OCc2nc(-c3ccc(-c4csc(C5CC5)n4)cc3)no2)cc1
42 | 850 | CC(C)Cn1ccc2c(cc(C(=O)NCc3cc(F)cc(F)c3)n2C)c1=O
43 | 682 | O=C(Cn1c(C(F)(F)F)nc2cc3c(cc21)OCCO3)N1CCOCC1
44 | 764 | CC1SC(C)C(=O)N(CC(=O)NCCc2ccccc2)C1=O (centres undefined)

Row | RP-LC retention time [s] | SMILES
45 | 610 | Cc1noc([C@@H]2CN(C(=O)c3ccoc3C)C[C@H]2CO)n1
46 | 592 | CCCCOCc1cc(CN2CCN(C)CC2)c(O)c2ncccc12
47 | 798 | Cc1cccc(NC(=O)C2CCN(C(=O)c3ncn4c3COC(c3ccccc3)C4)CC2)c1 (centres undefined)
48 | 645 | COc1ccc(-c2nc3cnccn3c2Nc2ccc(C(=O)NCC3CCCO3)cc2)cc1OC (centres undefined)
49 | 699 | COc1ccc2[nH]cc(CCNC(=O)c3cc(C)nc4c3c(=O)n(C)c(=O)n4C)c2c1
50 | 680 | COCCNC(=O)CCCn1c(=O)c2cccn2c2ccccc21
51 | 794 | CC(=O)c1ccc(N=NC(C(N)=O)C2NC(C)(C)Cc3ccccc32)cc1 (centres undefined)
52 | 672 | COc1cccc(NC(=O)Nc2cccc(-c3ccc(N4CCOCC4)nn3)c2)c1
53 | 814 | O=C(C1CCN(S(=O)(=O)c2ccc(-c3noc(-c4ccncc4)n3)cc2)CC1)N1CCCC1
54 | 669 | O=C(Nc1cccnc1)c1c2c(nc3ccccc13)C(=O)N(C1CCCCC1)C2
55 | 1100 | CCNS(=O)(=O)c1cccnc1Nc1ccc(Cl)c(C)c1
56 | 790 | Cc1ccccc1Cn1c(CN2CCC(C(=O)NCc3cccs3)CC2)cc2ccccc21
57 | 651 | CN(C)CCn1c2c(c(SCC(=O)Nc3cccc(Cl)c3)nc1=O)CCC2
58 | 708 | Cc1ccc(NC(=O)Cn2cnc3nc(N4CCCC(C(=O)NC5CC5)C4)sc3c2=O)c(C)c1 (centres undefined)
59 | 785 | COc1ccc(-c2noc(-c3ccc(N4CCN(Cc5ccc6c(c5)OCO6)CC4)nc3)n2)cc1
60 | 1000 | Cc1ccc(Cl)cc1NC(=O)c1cccn1Cc1noc(C2CC2)n1
61 | 1310 | Fc1ccc(-c2noc(Cc3nc(-c4ccc(Cl)cc4)cs3)n2)cc1
62 | 734 | Cc1ccc(Cn2cc(-c3ccncc3)cc2C(=O)NCc2cccs2)cc1
63 | 764 | Cc1c(Cl)cccc1NC(=O)Cn1ccc2sccc2c1=O
64 | 802 | COc1ccc2sc(Nc3nnc(-c4ccc5c(c4)OCCO5)o3)nc2c1
65 | 644 | C=CC1=C(C(=O)O)N2C(=O)[C@@H](NC(=O)/C(=N/OCC(=O)O)c3csc(N)n3)[C@H]2SC1
66 | 990 | Cc1ccc(-c2nnc(N3CCC(C(=O)NCCC4=CCCCC4)CC3)o2)cc1

Row | RP-LC retention time [s] | SMILES
67 | 818 | COc1ccc(Cl)cc1C(=O)Nc1cnc(N2CCCC2)nc1
68 | 780 | CCC1=C(c2ccc(C)cc2)S(=O)(=O)N=C1N1CCC(C(=O)N2CCOCC2)CC1
69 | 1330 | CCCN(CCC)S(=O)(=O)c1ccc(C(=O)Nc2nc(-c3ccc(OC)cc3)c(C)s2)cc1
70 | 604 | COc1ccccc1NC(=O)N1CCc2nc(CNC(=O)C3CCC3)n(C)c2C1
71 | 700 | Fc1ccc(-c2noc(-c3nnc(NCCCN4CCOCC4)c4ccccc34)n2)cc1
72 | 508 | Cc1cnc(-c2cccnc2)n1CC1CNC1
73 | 899 | Cc1csc(NC(=O)C2CCN(S(=O)(=O)c3cc(-c4noc(C)n4)ccc3Cl)CC2)n1
74 | 972 | CCC(c1cccs1)N1C(=O)[C@H]2CN(S(=O)(=O)c3cccc(F)c3)C[C@H]2C1=O (some centres undefined)
75 | 971 | CCCNS(=O)(=O)c1cccc(-c2nnc(-c3ccc(C)cc3)o2)c1
76 | 814 | O=C(Nc1ccc(N2CCCS2(=O)=O)cc1)NC(c1ccccc1)c1ccccc1
77 | 587 | COc1cccc(S(=O)(=O)N2CCC(n3c(C)cnc3C3CC3)C2)c1 (centres undefined)
78 | 605 | O=C(CCCN1C(=O)c2cccnc2Oc2ccccc21)N1CCN(c2ccccn2)CC1
79 | 779 | Cc1ccccc1S(=O)(=O)N1CCC(c2cc(N)on2)CC1
80 | 1120 | Cc1ccccc1-c1noc(CN2N=NC3C(=O)N(c4ccc5c(c4)CCC5)C(=O)C32)n1 (centres undefined)
81 | 732 | Cc1nn(CC(=O)NCc2ccco2)c(=O)c2nn(-c3ccccc3)c(C)c12
82 | 790 | O=C(COc1cccc2c1CCN(Cc1ccccc1F)C2=O)NCc1ccco1
83 | 627 | O=C(NC1CCCCCC1)C1CCCN(C(=O)c2cc(-c3ccncc3)n[nH]2)C1 (centres undefined)
84 | 988 | CCn1cc(-c2nc(C)c(C(=O)NC3CCCCC3)s2)c2cccnc21
85 | 1160 | Fc1ccccc1-c1noc(-c2nc(Cc3ccccc3)no2)n1
86 | 782 | O=[N+]([O-])c1ccc2c(c1)S(=O)c1ccccc1-2 (centres undefined)

Row | SMILES | RP-LC retention time [s]
87 | CCOc1ccccc1NC(=O)c1cn(C)c2ncccc12 | 927
88 | CCN(CC)C(=O)c1ccc2c(c1)N(CC(=O)NC)C(=O)C1CCCCN21 (centres undefined) | 684
89 | Cn1cnc(S(=O)(=O)N2[C@H]3CC[C@@H]2c2cnc(-c4ccccc4)nc2C3)c1 | 763

Reference: the METLIN SMRT retention time set (Domingo-Almenara et al. 2019)
